Measured values taken from patent publication US8765696B2, “Steroid compound” (Mikasa Seiyaku Co., Ltd., priority 2009, dated 2014).

Legend:
[1] = system: croton oil-induced ear edema; assay: Test for croton oil-induced ear edema; assay type: in vivo; conditions: rat right auricle; for Edema suppression rate of 6 hours after administration of inflammatory agent (%): 6 hours after croton oil; for Edema suppression rate of 24 hours after administration of inflammatory agent (%): 24 hours after croton oil
Method: Croton oil ear edema test, which is a representative model for dermatitis, was used to study the pharmacological effect of compounds of the present invention.
Five individuals/group of rats of 5 weeks old (body weight, 128 g to 169 g) were used. One day before the test, the thickness of the right ear was measured under ether anesthesia using a dial thickness gauge, to obtain the Pre value. On the day of the test, 20 mg each of the ointments to be tested, which had been prepared to have various concentrations in white vaseline, was applied to the right auricle (both sides) of each rat, and a collar was then placed around the neck of the rat to prevent contacting/scratching and removal of the drug. Two hours later, the ointment was wiped off under ether anesthesia using absorbent cotton, and 0.1 mL of 5% croton oil (croton oil:ether:pyridine:distilled water=1:14:4:1) solution was applied dropwise to the both sides of the auricle while drying the solution with a drier (air blow), to induce ear edema. Six and 24 hours after the induction of the edema, the thickness of the right auricle was measured under ether anesthesia, and the edema rate and the edema suppression rate were calculated according to the equations below, which suppression rate is shown in Table 1.

[2] = system: croton oil-induced granuloma; assay: Test for croton oil-induced granuloma (air pouch exudate and thymus weight); assay type: in vivo, rat; conditions: male Wistar rats, 7 days, vs control group
Excerpt: Using the croton oil granuloma test, which is a test method with which the local anti-inflammatory action and the systemic side effect can be evaluated at the same time, the pharmacological effect and the systemic side effect of the compounds of the present invention were studied.
Five individuals/group of male Wistar rats having body weights of 180 to 225 g were used, and hair on the back of these rats was shaved with a clipper under ether anesthesia, followed by preparing an air pouch by subcutaneous injection of 20 mL of air at the back. On the next day, 1 mL of cottonseed oil containing 1% croton oil was administered to the pouch. Each test drug was suspended in the croton oil-containing cottonseed oil before administration. Seven days later, blood was collected from abdominal aorta under ether anesthesia, and exudate in the pouch was collected and its fluid amount was measured. Further, the thymus was removed, and its weight was measured. The weight of the exudate and the weight of the thymus are shown in Table 2 as the suppression rate and the atrophy rate (%) with respect to those of the control group.

[3] = system: DNCB-induced dermatitis; assay: Test for DNCB-induced dermatitis (skin thickness and thymus weight); assay type: in vivo; conditions: rat, 0.1 mL once per day, 6 times
Method: The DNCB-induced dermatitis test, which is a representative model for allergic dermatitis, was used to study the pharmacological effect of the compound of the present invention.
Abdominal hair of rats (body weight, 205 to 230 g) under isoflurane anesthesia was shaved with an electric clipper and a shaver, and a test region having a size of 3 cm×4 cm was prepared, followed by applying 0.4 mL of 1% DNCB/acetone solution to the inside of the region, to carry out sensitization. Two weeks later, 1 mL of 1% DNCB/acetone solution was applied to the inside of the region to cause induction, and 4 days thereafter, reinduction was carried out. Two days after the reinduction, the skin was removed from the test region, and 5 predetermined positions were punched out using a punch having a diameter of 12 mm, followed by measuring the skin thickness using a dial thickness gauge. Further, to investigate the influence of side effects, the thymus was removed to measure its weight. Application of the test drug was carried out 4 hours after the first dermatitis induction such that 0.1 mL of the ointment is uniformly applied over the test region. Thereafter, the test drug was applied once per day, a total of 6 times until the next day of the reinduction (the day before removal of the skin). The skin thickness and the weight of the thymus are shown in Table 3 as the suppression rate and the atrophy rate (%) relative to those of the control group.

[4] = Amount of production of active metabolite in inflamed skin and non-inflamed skin; assay type: in vivo; conditions: hairless rat, 0.1 mL of 0.1% ointment, LC/MS/MS, Mean ± S.D.
Excerpt: The compounds of the present invention have the advantageous feature that they show the pharmacological effect after being metabolized to an active metabolite (des-ciclesonide) at the site of inflammation. The amount of the active metabolite produced when the compound of the present invention was applied to inflamed skin (skin whose dermatitis was induced by DNCB) or non-inflamed skin (normal skin) was compared.
Using, as the test region, an area of 3 cm×4 cm on the abdomen of a hairless rat of 9 weeks old, 0.4 mL of 1% DNCB/acetone solution was applied to the inside of the region under isoflurane anesthesia, to carry out sensitization. Two weeks later, 1 mL of 1% DNCB/acetone solution was applied to the inside of the region to cause induction, and, 48 hours thereafter, 0.1 mL of a test drug (0.1% ointment) was uniformly applied to the test region. The skin was removed 48 hours after the beginning of the application of the test drug. On the other hand, the test drug was also applied to a normal animal which had not been subjected to the sensitization and the induction, and the skin was removed 48 hours later. […] After centrifugation (10,000 g, 4° C., 5 min.), the centrifugal supernatant was subjected to quantification of the amount of the active metabolite (des-ciclesonide) using LC/MS/MS. […]

[5] = drug concentration 0.01% ointment
[6] = drug concentration 0.10% ointment

SMILES	Edema suppression rate of 6 hours after administration of inflammatory agent (%) ([1]; ointment concentration 0.001%)	Edema suppression rate of 24 hours after administration of inflammatory agent (%) ([1]; ointment concentration 0.001%)	Edema suppression rate of 6 hours after administration of inflammatory agent (%) ([1]; ointment concentration 0.01%)	Edema suppression rate of 24 hours after administration of inflammatory agent (%) ([1]; ointment concentration 0.01%)	Edema suppression rate of 6 hours after administration of inflammatory agent (%) ([1]; ointment concentration 0.1%)	Edema suppression rate of 24 hours after administration of inflammatory agent (%) ([1]; ointment concentration 0.1%)	Rate of exudates suppression (pharmacological effects) ([2]; dose 0.001 mg/rat into pouch) [%]	Rate of thymus atrophy (systemic side effects) ([2]; dose 0.001 mg/rat into pouch) [%]	Rate of exudates suppression (pharmacological effects) ([2]; dose 0.01 mg/rat into pouch) [%]	Rate of thymus atrophy (systemic side effects) ([2]; dose 0.01 mg/rat into pouch) [%]	Rate of exudates suppression (pharmacological effects) ([2]; dose 0.1 mg/rat into pouch) [%]	Rate of thymus atrophy (systemic side effects) ([2]; dose 0.1 mg/rat into pouch) [%]	Rate of exudates suppression (pharmacological effects) ([2]; dose 1 mg/rat into pouch) [%]	Rate of thymus atrophy (systemic side effects) ([2]; dose 1 mg/rat into pouch) [%]	Rate of Skin thickness suppression (pharmacological effects) (%) [3, 5] [%]	Rate of thymus atrophy (systemic side effects) (%) [3, 5] [%]	Rate of Skin thickness suppression (pharmacological effects) (%) [3, 6] [%]	Rate of thymus atrophy (systemic side effects) (%) [3, 6] [%]	Drug concentration of active metabolite (Compound C), 48 hours after test drug were applied once ([4]; DNCB-induced dermatitis skin)	Drug concentration of active metabolite (Compound C), 48 hours after test drug were applied once ([4]; non-inflamed skin (normal skin))
CC(=O)OCC1OC(OCC(=O)C23OC(C4CCCCC4)OC2CC2C4CCC5=CC(=O)C=CC5(C)C4C(O)CC23C)C(OC(C)=O)C(OC(C)=O)C1OC(C)=O (stereo not shown) [Compound 3]	50.3	48.1	46.1	58.0	51.7	56.0	7.9	0.0	41.6	0.0	92.7	0.0	96.3	2.4	46.1	0.0	60.5	0.0	1272 ± 276 (ng/g)	119 ± 48 (ng/g)
CCCC(=O)OCC1OC(OCC(=O)C23OC(C4CCCCC4)OC2CC2C4CCC5=CC(=O)C=CC5(C)C4C(O)CC23C)C(OC(=O)CCC)C(OC(=O)CCC)C1OC(=O)CCC (stereo not shown) [Compound 5]	21.7	11.1	61.5	48.1	57.6	52.3	17.8	0.0	14.3	0.0	40.4	0.0	91.4	0.0	–	–	–	–	–	–
CC(C)C(=O)OCC1OC(OCC(=O)C23OC(C4CCCCC4)OC2CC2C4CCC5=CC(=O)C=CC5(C)C4C(O)CC23C)C(OC(=O)C(C)C)C(OC(=O)C(C)C)C1OC(=O)C(C)C (stereo not shown) [Compound 6]	27.5	30.5	53.1	45.8	53.1	55.1	0.0	0.0	12.0	0.0	31.2	0.0	71.9	0.0	–	–	–	–	–	–
CC(=O)NC1C(OCC(=O)C23OC(C4CCCCC4)OC2CC2C4CCC5=CC(=O)C=CC5(C)C4C(O)CC23C)OC(COC(C)=O)C(OC(C)=O)C1OC(C)=O (stereo not shown) [Compound 12]	29.9	36.6	16.7	29.6	12.4	9.1	3.6	0.0	0.0	5.8	0.0	17.7	76.5	8.0	–	–	–	–	–	–
CCCC1O[C@@H]2C[C@H]3[C@@H]4CCC5=CC(=O)C=C[C@]5(C)[C@H]4[C@@H](O)C[C@]3(C)[C@]2(C(=O)CO)O1 (stereo partly shown) [Budesonide, budesonide, reference compound]	11.8	7.6	32.3	33.5	48.1	45.1	10.8	7.3	66.9	17.7	91.6	74.5	94.3	87.5	–	–	–	–	–	–
